What was measured:
Assay in all cases: Kinase panel (mobility shift)
Type in all cases: biochemical
P38-a = P38-a (Homo sapiens, UniProt Q16539); settings: at 5 um
Outline: (§1)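 Tested at a single 5 um concentration within a 299-kinase panel, compounds were scored by electrophoretic mobility shift of a fluorescent substrate into product. Categories: A, 95% or greater; B, 90%-94%; C, 80%-89%.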

HIPK4 = molecular target: T1, HIPK4 (Homo sapiens, UniProt Q8NE63)
T1 sequence (Q8NE63 1-616): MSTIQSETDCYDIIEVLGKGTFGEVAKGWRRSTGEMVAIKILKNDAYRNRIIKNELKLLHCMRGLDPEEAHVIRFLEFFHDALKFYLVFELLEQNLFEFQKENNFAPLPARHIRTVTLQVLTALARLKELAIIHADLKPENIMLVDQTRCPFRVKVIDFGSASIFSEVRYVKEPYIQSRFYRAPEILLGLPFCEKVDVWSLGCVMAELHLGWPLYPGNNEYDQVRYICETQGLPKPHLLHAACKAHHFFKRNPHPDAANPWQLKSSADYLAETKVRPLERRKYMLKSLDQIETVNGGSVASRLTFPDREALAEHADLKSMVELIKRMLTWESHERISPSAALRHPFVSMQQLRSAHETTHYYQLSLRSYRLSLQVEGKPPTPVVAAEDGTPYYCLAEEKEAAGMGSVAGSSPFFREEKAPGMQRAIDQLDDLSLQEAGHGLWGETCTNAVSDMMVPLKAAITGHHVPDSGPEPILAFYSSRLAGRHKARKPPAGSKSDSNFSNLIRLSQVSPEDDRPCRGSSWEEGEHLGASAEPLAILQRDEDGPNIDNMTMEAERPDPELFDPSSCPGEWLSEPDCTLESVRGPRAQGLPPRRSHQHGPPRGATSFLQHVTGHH
Outline: as §1

P38-b = P38-b (Homo sapiens, UniProt Q15759)
Outline: as §1

TIE2 = TIE2 (Homo sapiens, UniProt Q02763)
Outline: as §1

EPH-B2 = molecular target: T2, EPH-B2 (Homo sapiens, UniProt P29323); settings: at 5 um
T2 sequence (P29323 19-1055): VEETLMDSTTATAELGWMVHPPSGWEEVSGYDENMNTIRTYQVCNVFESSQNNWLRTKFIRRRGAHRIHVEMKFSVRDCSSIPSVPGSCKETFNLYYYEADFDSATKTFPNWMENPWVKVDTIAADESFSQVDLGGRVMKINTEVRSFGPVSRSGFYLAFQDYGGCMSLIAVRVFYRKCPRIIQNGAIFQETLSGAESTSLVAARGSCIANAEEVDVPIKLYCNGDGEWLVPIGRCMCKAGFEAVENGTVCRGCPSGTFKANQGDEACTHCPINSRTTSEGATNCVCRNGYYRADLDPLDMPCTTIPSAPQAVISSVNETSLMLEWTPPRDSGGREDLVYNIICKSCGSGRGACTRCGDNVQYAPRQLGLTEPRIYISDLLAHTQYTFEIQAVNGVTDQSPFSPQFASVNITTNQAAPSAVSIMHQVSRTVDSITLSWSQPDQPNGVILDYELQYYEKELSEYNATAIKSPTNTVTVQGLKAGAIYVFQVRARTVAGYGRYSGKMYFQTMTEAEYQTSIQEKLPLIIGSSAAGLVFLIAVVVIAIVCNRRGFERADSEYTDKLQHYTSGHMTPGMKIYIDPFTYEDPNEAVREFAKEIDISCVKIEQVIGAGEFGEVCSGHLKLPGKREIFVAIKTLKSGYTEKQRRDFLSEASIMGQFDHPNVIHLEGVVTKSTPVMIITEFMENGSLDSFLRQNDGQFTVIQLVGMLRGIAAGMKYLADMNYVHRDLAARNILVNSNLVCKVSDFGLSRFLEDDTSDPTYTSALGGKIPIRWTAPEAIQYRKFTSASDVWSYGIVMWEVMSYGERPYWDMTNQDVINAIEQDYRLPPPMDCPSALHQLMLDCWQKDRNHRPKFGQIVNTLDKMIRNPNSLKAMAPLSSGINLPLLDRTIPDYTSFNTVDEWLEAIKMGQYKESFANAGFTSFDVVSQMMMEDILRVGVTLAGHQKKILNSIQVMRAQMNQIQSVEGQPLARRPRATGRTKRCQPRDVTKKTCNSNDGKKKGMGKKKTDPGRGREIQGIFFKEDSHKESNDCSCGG
Outline: as §1

EPH-A5 = EPH-A5 (Homo sapiens, UniProt P54756); settings: at 5 um
Outline: as §1

LOK = LOK (Homo sapiens, UniProt O94804); settings: at 5 um
Outline: as §1

TIE2, sequence (Q02763 23-1124, species assumed): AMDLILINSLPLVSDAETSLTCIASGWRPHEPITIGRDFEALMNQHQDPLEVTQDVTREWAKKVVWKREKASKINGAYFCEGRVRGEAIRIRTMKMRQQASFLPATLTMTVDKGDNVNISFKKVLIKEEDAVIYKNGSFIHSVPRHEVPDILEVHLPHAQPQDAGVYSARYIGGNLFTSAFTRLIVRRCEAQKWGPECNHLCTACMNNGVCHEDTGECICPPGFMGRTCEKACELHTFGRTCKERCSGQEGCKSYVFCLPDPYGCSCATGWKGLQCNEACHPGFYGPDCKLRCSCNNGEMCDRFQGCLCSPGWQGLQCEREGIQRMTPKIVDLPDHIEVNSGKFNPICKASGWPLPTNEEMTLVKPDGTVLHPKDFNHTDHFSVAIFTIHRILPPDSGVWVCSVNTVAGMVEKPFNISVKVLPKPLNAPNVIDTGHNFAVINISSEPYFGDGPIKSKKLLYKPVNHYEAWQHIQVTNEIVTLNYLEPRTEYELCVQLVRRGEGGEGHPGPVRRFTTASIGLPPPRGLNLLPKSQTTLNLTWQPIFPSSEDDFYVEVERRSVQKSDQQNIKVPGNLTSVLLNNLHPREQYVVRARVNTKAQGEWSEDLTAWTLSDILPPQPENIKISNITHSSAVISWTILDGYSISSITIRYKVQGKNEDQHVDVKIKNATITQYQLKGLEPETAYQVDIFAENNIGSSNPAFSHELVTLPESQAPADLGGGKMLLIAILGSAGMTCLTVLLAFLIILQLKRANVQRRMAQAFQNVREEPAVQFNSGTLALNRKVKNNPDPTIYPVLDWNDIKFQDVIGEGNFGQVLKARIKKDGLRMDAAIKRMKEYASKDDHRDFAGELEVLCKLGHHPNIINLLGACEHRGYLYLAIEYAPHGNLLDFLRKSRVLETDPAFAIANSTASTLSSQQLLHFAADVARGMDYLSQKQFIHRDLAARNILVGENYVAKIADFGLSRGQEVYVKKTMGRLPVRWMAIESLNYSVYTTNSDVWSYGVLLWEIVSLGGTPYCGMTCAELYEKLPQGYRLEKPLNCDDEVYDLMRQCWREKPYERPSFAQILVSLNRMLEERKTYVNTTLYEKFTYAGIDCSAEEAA
P38-a, sequence (Q16539 whole entry): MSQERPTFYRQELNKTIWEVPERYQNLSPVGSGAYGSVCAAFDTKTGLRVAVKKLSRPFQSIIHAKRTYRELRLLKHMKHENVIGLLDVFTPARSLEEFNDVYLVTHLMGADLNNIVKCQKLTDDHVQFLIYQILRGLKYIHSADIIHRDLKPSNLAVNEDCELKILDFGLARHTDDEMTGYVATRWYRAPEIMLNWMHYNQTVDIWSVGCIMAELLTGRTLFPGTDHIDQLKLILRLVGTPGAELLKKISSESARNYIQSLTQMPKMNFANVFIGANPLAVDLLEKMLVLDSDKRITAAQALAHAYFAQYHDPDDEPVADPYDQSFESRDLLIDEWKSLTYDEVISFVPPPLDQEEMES
P38-b, sequence (Q15759 whole entry, species assumed): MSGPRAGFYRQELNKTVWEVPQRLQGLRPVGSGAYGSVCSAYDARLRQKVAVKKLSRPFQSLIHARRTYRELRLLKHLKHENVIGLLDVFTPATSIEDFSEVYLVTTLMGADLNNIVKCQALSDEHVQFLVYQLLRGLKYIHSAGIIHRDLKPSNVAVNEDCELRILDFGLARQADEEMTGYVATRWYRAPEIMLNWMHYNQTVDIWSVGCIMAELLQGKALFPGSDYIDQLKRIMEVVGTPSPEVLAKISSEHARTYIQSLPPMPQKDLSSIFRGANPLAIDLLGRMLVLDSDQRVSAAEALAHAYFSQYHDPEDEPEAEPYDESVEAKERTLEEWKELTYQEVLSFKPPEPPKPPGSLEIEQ
LOK, sequence (O94804 whole entry, species assumed): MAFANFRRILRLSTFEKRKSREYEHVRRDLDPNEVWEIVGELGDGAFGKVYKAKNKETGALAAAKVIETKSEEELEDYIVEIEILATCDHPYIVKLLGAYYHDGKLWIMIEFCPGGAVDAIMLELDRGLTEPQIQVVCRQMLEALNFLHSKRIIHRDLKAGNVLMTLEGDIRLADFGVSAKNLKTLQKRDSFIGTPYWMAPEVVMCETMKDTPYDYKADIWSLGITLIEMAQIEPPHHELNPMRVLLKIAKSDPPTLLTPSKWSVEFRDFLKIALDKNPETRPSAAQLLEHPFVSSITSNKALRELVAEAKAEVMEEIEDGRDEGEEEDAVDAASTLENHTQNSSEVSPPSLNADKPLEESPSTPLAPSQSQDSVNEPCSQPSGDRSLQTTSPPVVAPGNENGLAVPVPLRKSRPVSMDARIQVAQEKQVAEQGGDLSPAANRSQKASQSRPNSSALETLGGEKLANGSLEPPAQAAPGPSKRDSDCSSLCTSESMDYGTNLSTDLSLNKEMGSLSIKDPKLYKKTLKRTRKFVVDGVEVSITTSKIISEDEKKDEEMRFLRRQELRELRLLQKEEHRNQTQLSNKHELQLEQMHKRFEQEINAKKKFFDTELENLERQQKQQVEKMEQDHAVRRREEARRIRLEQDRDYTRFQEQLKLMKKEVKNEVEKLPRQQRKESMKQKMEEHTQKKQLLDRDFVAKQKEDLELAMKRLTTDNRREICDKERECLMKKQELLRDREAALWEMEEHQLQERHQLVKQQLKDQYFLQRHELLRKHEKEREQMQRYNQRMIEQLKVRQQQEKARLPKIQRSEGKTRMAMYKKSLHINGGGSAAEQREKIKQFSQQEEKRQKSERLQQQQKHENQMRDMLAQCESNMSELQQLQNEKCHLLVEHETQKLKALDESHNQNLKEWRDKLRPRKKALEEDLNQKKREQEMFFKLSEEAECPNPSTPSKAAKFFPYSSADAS
EPH-A5, sequence (P54756 25-1037, species assumed): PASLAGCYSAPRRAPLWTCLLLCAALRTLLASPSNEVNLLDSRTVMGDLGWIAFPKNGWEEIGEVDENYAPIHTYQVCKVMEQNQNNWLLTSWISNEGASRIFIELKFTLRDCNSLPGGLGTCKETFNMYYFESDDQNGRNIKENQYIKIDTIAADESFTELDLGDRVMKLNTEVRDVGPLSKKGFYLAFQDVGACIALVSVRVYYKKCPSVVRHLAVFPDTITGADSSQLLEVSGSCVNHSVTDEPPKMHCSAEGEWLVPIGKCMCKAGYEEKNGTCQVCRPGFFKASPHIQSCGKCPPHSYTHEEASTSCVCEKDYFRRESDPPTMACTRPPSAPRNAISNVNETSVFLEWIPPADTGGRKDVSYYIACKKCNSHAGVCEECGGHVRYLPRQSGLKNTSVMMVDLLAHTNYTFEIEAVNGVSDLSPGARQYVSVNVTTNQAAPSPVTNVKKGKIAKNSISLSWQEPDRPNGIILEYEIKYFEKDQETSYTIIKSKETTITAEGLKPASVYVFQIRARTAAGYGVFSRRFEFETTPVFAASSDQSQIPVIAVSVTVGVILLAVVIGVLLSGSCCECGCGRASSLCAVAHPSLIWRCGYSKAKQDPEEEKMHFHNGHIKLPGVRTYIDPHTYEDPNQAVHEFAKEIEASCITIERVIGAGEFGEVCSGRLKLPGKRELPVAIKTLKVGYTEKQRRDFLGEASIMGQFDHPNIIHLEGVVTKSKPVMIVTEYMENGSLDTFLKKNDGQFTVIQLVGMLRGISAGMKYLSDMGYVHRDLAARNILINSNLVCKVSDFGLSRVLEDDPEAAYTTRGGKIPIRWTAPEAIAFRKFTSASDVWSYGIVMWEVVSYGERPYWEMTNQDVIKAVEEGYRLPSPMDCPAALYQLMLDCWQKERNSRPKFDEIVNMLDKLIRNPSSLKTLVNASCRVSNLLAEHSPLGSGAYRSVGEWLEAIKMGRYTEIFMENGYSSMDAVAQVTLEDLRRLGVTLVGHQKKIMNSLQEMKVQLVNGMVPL

inhibition of kinase activity, P38-a (P38-a)	inhibition at 5 µM (HIPK4) [%]	inhibition at 5 µM (P38-b) [%]	inhibition at 5 µM (TIE2) [%]	inhibition of kinase activity, EPH-B2 (EPH-B2)	inhibition of kinase activity, EPH-A5 (EPH-A5)	inhibition of kinase activity, LOK (LOK)	Structure (SMILES)
E (category E is less than 50%)	≥ 95	< 50	< 50	E (category E is less than 50%)	E (category E is less than 50%)	D (category D for 50-79)	CNC(=O)c1cc(Oc2ccc(NC(=O)c3nc(OC)oc3-c3ccc(F)s3)cc2F)ccn1 [Compound 25]
C (C=80%-89% at 5 um)	≥ 95	< 50	< 50	E (category E is less than 50%)	E (category E is less than 50%)	C (C=80%-89% at 5 um)	[2H]C([2H])([2H])NC(=O)c1cc(Oc2ccc(NC(=O)c3nc(SC)oc3-c3ccc(F)c(F)c3)cc2F)ccn1 [Compound 33]
C (C=80%-89% at 5 um)	≥ 95	50 to 79	< 50	E (category E is less than 50%)	E (category E is less than 50%)	D (category D for 50-79)	CNC(=O)c1cc(Oc2ccc(NC(=O)c3nc(SC)oc3-c3ccc(F)c(F)c3)cc2)ccn1 [Compound 4]
B (B=90%-94% at 5 um)	≥ 95	50 to 79	80 to 89	C (C=80%-89% at 5 um)	C (C=80%-89% at 5 um)	C (C=80%-89% at 5 um)	CNC(=O)c1cc(Oc2ccc(NC(=O)c3nc(C4CC4)oc3-c3ccc(F)cc3)cc2F)ccn1 [Compound 26]
E (category E is less than 50%)	≥ 95	< 50	< 50	E (category E is less than 50%)	E (category E is less than 50%)	D (category D for 50-79)	CNC(=O)c1cc(Oc2ccc(NC(=O)c3nc(NC)oc3-c3ccc(F)s3)cc2F)ccn1 [Compound 17]
E (category E is less than 50%)	90 to 94	< 50	< 50	E (category E is less than 50%)	E (category E is less than 50%)	C (C=80%-89% at 5 um)	CNC(=O)c1cc(Oc2ccc(NC(=O)c3nc(SC)oc3-c3ccc(OC)cc3)cc2)ccn1 [Compound 7]
D (category D for 50-79)	≥ 95	< 50	< 50	E (category E is less than 50%)	E (category E is less than 50%)	E (category E is less than 50%)	CSc1nc(C(=O)Nc2ccc(Oc3ccnc(C(=O)NC4CNC4)c3)c(F)c2)c(-c2ccc(F)s2)o1 [Compound 27]
